According to PubChem BioAssay AID1745844 (Carcinogenic Potency Database (CPDB), 2022):
Activity calls are given as the source filed them. No rule for the calls is given here.

Tested on: rodent lifetime carcinogenesis bioassay, tumor incidence TD50
Assay: carcinogenic potency in animals, long-term in vivo studies, CPDB compilation (AID 1745844)

## O=C(O)c1ccc([N+](=O)[O-])cc1
mouse, strain B6C3F1, females, in feed, site: any site (literature study), lesion: several types, types named in the paper, dosed 103 weeks, study length 104 weeks
  TD50: 3160 mg/kg/day (inactive)
mouse, strain B6C3F1, females, in feed, site: lung, lesion: alveolar/bronchiolar adenoma + alveolar/bronchiolar carcinoma, dosed 103 weeks, study length 104 weeks
  TD50: 2330 mg/kg/day
mouse, strain B6C3F1, males, in feed, site: any site (literature study), lesion: several types, types named in the paper, dosed 103 weeks, study length 104 weeks
  carcinogen call: negative (inactive)
mouse, strain B6C3F1, males, in feed, site: lung, lesion: alveolar/bronchiolar adenoma + alveolar/bronchiolar carcinoma, dosed 103 weeks, study length 104 weeks
  TD50: 4350 mg/kg/day
rat, strain Fischer 344, females, in feed, site: any site (literature study), lesion: several types, types named in the paper, dosed 103 weeks, study length 104 weeks
  TD50: 373 mg/kg/day
rat, strain Fischer 344, females, in feed, site: clitoral gland, lesion: adenoma + adenoma, bilateral + carcinoma + carcinoma, bilateral, dosed 103 weeks, study length 104 weeks
  TD50: 287 mg/kg/day
rat, strain Fischer 344, females, in feed, site: clitoral gland, lesion: adenoma + adenoma, bilateral, dosed 103 weeks, study length 104 weeks
  TD50: 439 mg/kg/day
rat, strain Fischer 344, females, in feed, site: clitoral gland, lesion: carcinoma + carcinoma, bilateral, dosed 103 weeks, study length 104 weeks
  TD50: 1080 mg/kg/day
rat, strain Fischer 344, females, in feed, site: uterus, lesion: endometrial stromal polyp + endometrial stromal sarcoma, dosed 103 weeks, study length 104 weeks
  TD50: 197 mg/kg/day
rat, strain Fischer 344, females, in feed, site: uterus, lesion: endometrial stromal polyp, dosed 103 weeks, study length 104 weeks
  TD50: 220 mg/kg/day
rat, strain Fischer 344, males, in feed, site: preputial gland, lesion: carcinoma + carcinoma, bilateral, dosed 103 weeks, study length 104 weeks
  TD50: 926 mg/kg/day (inactive)

## O=C1OC(CN2CCOCC2)CN1/N=C/c1ccc([N+](=O)[O-])o1 (stereo not drawn)
rat, strain Sprague-Dawley, females, in feed, site: all sites, lesion: lymphoblastic lymphoma, dosed 46 weeks, study length 66 weeks
  TD50: 39 mg/kg/day
rat, strain Sprague-Dawley, females, in feed, site: any site (literature study), lesion: several types, types named in the paper, dosed 46 weeks, study length 66 weeks
  TD50: 2.81 mg/kg/day
rat, strain Sprague-Dawley, females, in feed, site: kidney/pelvis, lesion: transitional-cell carcinoma, dosed 46 weeks, study length 66 weeks
  TD50: 149 mg/kg/day
rat, strain Sprague-Dawley, females, in feed, site: mammary gland, lesion: adenocarcinoma, dosed 46 weeks, study length 66 weeks
  TD50: 6.33 mg/kg/day
rat, strain Sprague-Dawley, females, in feed, site: mammary gland, lesion: several types, types named in the paper, dosed 46 weeks, study length 66 weeks
  TD50: 2.81 mg/kg/day

## Nc1cnn([C@@H]2O[C@H](CO)[C@@H](O)[C@H]2O)c(=O)n1
rat, strain Fischer 344, males, i.p., site: any site (literature study), lesion: one or several types, types not named, dosed 52 weeks, study length 52 weeks
  carcinogen call: negative (inactive)

## CNC(=O)ON=C(SC)C(=O)N(C)C
mouse, strain Charles River CD1, females, in feed, site: any site (literature study), lesion: several types, types named in the paper, dosed 104 weeks, study length 104 weeks
  carcinogen call: negative (inactive)
mouse, strain Charles River CD1, males, in feed, site: any site (literature study), lesion: several types, types named in the paper, dosed 104 weeks, study length 104 weeks
  carcinogen call: negative (inactive)
rat, strain Charles River CD (Sprague-Dawley), females, in feed, site: liver, lesion: hepatocellular hyperplastic nodule, dosed 104 weeks, study length 104 weeks
  carcinogen call: negative (inactive)
rat, strain Charles River CD (Sprague-Dawley), males, in feed, site: liver, lesion: one or several types, types not named, dosed 104 weeks, study length 104 weeks
  carcinogen call: negative (inactive)

## Nc1ccc(Cc2ccc(N)cc2)cc1
mouse, strain B6C3F1, females, in drinking water, site: all sites + liver + thyroid gland, lesion: malignant lymphoma, histiocytic type + malignant lymphoma, mixed type + malignant lymphoma, undifferentiated type + malignant, dosed 103 weeks, study length 104 weeks
  TD50: 32.6 mg/kg/day
mouse, strain B6C3F1, females, in drinking water, site: all sites, lesion: malignant lymphoma, histiocytic type + malignant lymphoma, mixed type + malignant lymphoma, undifferentiated type + malignant, dosed 103 weeks, study length 104 weeks
  TD50: 64.7 mg/kg/day
mouse, strain B6C3F1, females, in drinking water, site: any site (literature study), lesion: several types, types named in the paper, dosed 103 weeks, study length 104 weeks
  TD50: 52.1 mg/kg/day
mouse, strain B6C3F1, females, in drinking water, site: liver, lesion: hepatocellular adenoma + hepatocellular carcinoma + neoplastic nodule, dosed 103 weeks, study length 104 weeks
  TD50: 59.3 mg/kg/day
mouse, strain B6C3F1, females, in drinking water, site: liver, lesion: hepatocellular adenoma + hepatocellular carcinoma, dosed 103 weeks, study length 104 weeks
  TD50: 59.3 mg/kg/day
mouse, strain B6C3F1, females, in drinking water, site: liver, lesion: hepatocellular adenoma, dosed 103 weeks, study length 104 weeks
  TD50: 135 mg/kg/day
mouse, strain B6C3F1, females, in drinking water, site: liver, lesion: hepatocellular carcinoma, dosed 103 weeks, study length 104 weeks
  TD50: 137 mg/kg/day
mouse, strain B6C3F1, females, in drinking water, site: lung, lesion: alveolar/bronchiolar adenoma + alveolar/bronchiolar carcinoma, dosed 103 weeks, study length 104 weeks
  TD50: 268 mg/kg/day
mouse, strain B6C3F1, females, in drinking water, site: lung, lesion: alveolar/bronchiolar adenoma, dosed 103 weeks, study length 104 weeks
  TD50: 327 mg/kg/day
mouse, strain B6C3F1, females, in drinking water, site: thyroid gland, lesion: follicular-cell adenoma + follicular-cell carcinoma, dosed 103 weeks, study length 104 weeks
  TD50: 128 mg/kg/day
mouse, strain B6C3F1, females, in drinking water, site: thyroid gland, lesion: follicular-cell adenoma, dosed 103 weeks, study length 104 weeks
  TD50: 150 mg/kg/day
mouse, strain B6C3F1, males, in drinking water, site: adrenal gland + liver + thyroid gland, lesion: pheochromocytoma + hepatocellular carcinoma + follicular-cell adenoma, dosed 103 weeks, study length 104 weeks
  TD50: 28.7 mg/kg/day
mouse, strain B6C3F1, males, in drinking water, site: adrenal gland, lesion: pheochromocytoma, dosed 103 weeks, study length 104 weeks
  TD50: 70 mg/kg/day
mouse, strain B6C3F1, males, in drinking water, site: any site (literature study), lesion: several types, types named in the paper, dosed 103 weeks, study length 104 weeks
  TD50: 47.4 mg/kg/day
mouse, strain B6C3F1, males, in drinking water, site: liver, lesion: hepatocellular adenoma + hepatocellular carcinoma + neoplastic nodule, dosed 103 weeks, study length 104 weeks
  TD50: 17 mg/kg/day
mouse, strain B6C3F1, males, in drinking water, site: liver, lesion: hepatocellular adenoma + hepatocellular carcinoma, dosed 103 weeks, study length 104 weeks
  TD50: 17 mg/kg/day
mouse, strain B6C3F1, males, in drinking water, site: liver, lesion: hepatocellular carcinoma, dosed 103 weeks, study length 104 weeks
  TD50: 22.3 mg/kg/day
mouse, strain B6C3F1, males, in drinking water, site: thyroid gland, lesion: follicular-cell adenoma, dosed 103 weeks, study length 104 weeks
  TD50: 88.4 mg/kg/day
rat, strain Fischer 344, females, in drinking water, site: any site (literature study), lesion: several types, types named in the paper, dosed 103 weeks, study length 105 weeks
  TD50: 277 mg/kg/day
rat, strain Fischer 344, females, in drinking water, site: liver, lesion: hepatocellular adenoma + hepatocellular carcinoma + neoplastic nodule, dosed 103 weeks, study length 105 weeks
  TD50: 118 mg/kg/day
rat, strain Fischer 344, females, in drinking water, site: thyroid gland, lesion: c-cell adenoma + c-cell carcinoma, dosed 103 weeks, study length 105 weeks
  TD50: 70 mg/kg/day
rat, strain Fischer 344, females, in drinking water, site: thyroid gland, lesion: c-cell adenoma + follicular-cell adenoma, dosed 103 weeks, study length 105 weeks
  TD50: 22 mg/kg/day
rat, strain Fischer 344, females, in drinking water, site: thyroid gland, lesion: c-cell adenoma, dosed 103 weeks, study length 105 weeks
  TD50: 73.7 mg/kg/day
rat, strain Fischer 344, females, in drinking water, site: thyroid gland, lesion: follicular-cell adenoma + follicular-cell carcinoma, dosed 103 weeks, study length 105 weeks
  TD50: 27.2 mg/kg/day
rat, strain Fischer 344, females, in drinking water, site: thyroid gland, lesion: follicular-cell adenoma, dosed 103 weeks, study length 105 weeks
  TD50: 33.5 mg/kg/day
rat, strain Fischer 344, males, in drinking water, site: liver + thyroid gland, lesion: neoplastic nodule + follicular-cell carcinoma, dosed 103 weeks, study length 105 weeks
  TD50: 12.5 mg/kg/day
rat, strain Fischer 344, males, in drinking water, site: liver, lesion: hepatocellular adenoma + hepatocellular carcinoma + neoplastic nodule, dosed 103 weeks, study length 105 weeks
  TD50: 14.1 mg/kg/day
rat, strain Fischer 344, males, in drinking water, site: liver, lesion: neoplastic nodule, dosed 103 weeks, study length 105 weeks
  TD50: 14.3 mg/kg/day
rat, strain Fischer 344, males, in drinking water, site: thyroid gland, lesion: follicular-cell adenoma + follicular-cell carcinoma, dosed 103 weeks, study length 105 weeks
  TD50: 49.5 mg/kg/day
rat, strain Fischer 344, males, in drinking water, site: thyroid gland, lesion: follicular-cell carcinoma, dosed 103 weeks, study length 105 weeks
  TD50: 85.4 mg/kg/day

## S=C([S-])NCCNC(=S)[S-].[Mn+2]
mouse, strain B6AKF1, females, oral dosing, site: any site (literature study), lesion: several types, types named in the paper, dosed 76 weeks, study length 76 weeks
  TD50: 138 mg/kg/day (inactive)
mouse, strain B6AKF1, females, oral dosing, site: liver, lesion: hepatoma, dosed 76 weeks, study length 76 weeks
  carcinogen call: negative (inactive)
mouse, strain B6AKF1, females, oral dosing, site: lung, lesion: adenoma, dosed 76 weeks, study length 76 weeks
  carcinogen call: negative (inactive)
mouse, strain B6AKF1, males, oral dosing, site: any site (literature study), lesion: several types, types named in the paper, dosed 76 weeks, study length 76 weeks
  TD50: 106 mg/kg/day (inactive)
mouse, strain B6AKF1, males, oral dosing, site: liver, lesion: hepatoma, dosed 76 weeks, study length 76 weeks
  carcinogen call: negative (inactive)
mouse, strain B6AKF1, males, oral dosing, site: lung, lesion: adenoma, dosed 76 weeks, study length 76 weeks
  TD50: 54.9 mg/kg/day (inactive)
mouse, strain B6C3F1, females, oral dosing, site: any site (literature study), lesion: one or several types, types not named, dosed 76 weeks, study length 76 weeks
  carcinogen call: negative (inactive)
mouse, strain B6C3F1, females, oral dosing, site: liver, lesion: hepatoma, dosed 76 weeks, study length 76 weeks
  carcinogen call: negative (inactive)
mouse, strain B6C3F1, females, oral dosing, site: lung, lesion: several types, types named in the paper, dosed 76 weeks, study length 76 weeks
  carcinogen call: negative (inactive)
mouse, strain B6C3F1, males, oral dosing, site: any site (literature study), lesion: several types, types named in the paper, dosed 76 weeks, study length 76 weeks
  TD50: 62.3 mg/kg/day (inactive)
mouse, strain B6C3F1, males, oral dosing, site: liver, lesion: hepatoma, dosed 76 weeks, study length 76 weeks
  TD50: 128 mg/kg/day (inactive)
mouse, strain B6C3F1, males, oral dosing, site: lung, lesion: adenoma, dosed 76 weeks, study length 76 weeks
  TD50: 128 mg/kg/day (inactive)
rat, strain Mongrel, both sexes, by gavage, site: any site (literature study), lesion: several types, types named in the paper, dosed 95 weeks, study length 104 weeks
  TD50: 157 mg/kg/day

## Cc1cccc2ccccc12
mouse, strain B6C3F1, females, in feed, site: liver, lesion: hepatocellular adenoma, dosed 81 weeks, study length 81 weeks
  TD50: 979 mg/kg/day
mouse, strain B6C3F1, females, in feed, site: liver, lesion: hepatocellular carcinoma, dosed 81 weeks, study length 81 weeks
  TD50: 6040 mg/kg/day
mouse, strain B6C3F1, males, in feed, site: any site (literature study), lesion: one or several types, types not named, dosed 81 weeks, study length 81 weeks
  TD50: 2260 mg/kg/day
mouse, strain B6C3F1, males, in feed, site: lung, lesion: alveolar/bronchiolar adenoma, dosed 81 weeks, study length 81 weeks
  TD50: 244 mg/kg/day
mouse, strain B6C3F1, males, in feed, site: lung, lesion: alveolar/bronchiolar carcinoma, dosed 81 weeks, study length 81 weeks
  TD50: 1830 mg/kg/day
mouse, strain B6C3F1, males, in feed, site: lung, lesion: several types, types named in the paper, dosed 81 weeks, study length 81 weeks
  TD50: 201 mg/kg/day

## Brc1cc(Br)c2cccnc2c1
rat, strain Fischer 344, females, in feed, site: liver, lesion: hyperplastic nodule, dosed 104 weeks, study length 104 weeks
  carcinogen call: negative (inactive)
rat, strain Fischer 344, males, in feed, site: liver, lesion: hyperplastic nodule, dosed 104 weeks, study length 104 weeks
  TD50: 754 mg/kg/day (inactive)
rat, strain Fischer 344, males, in feed, site: testis, lesion: interstitial-cell tumor, dosed 104 weeks, study length 104 weeks
  TD50: 69.4 mg/kg/day (inactive)
